Data: patent US9169254B2, “Spiroimidazolone derivative” (Chugai Seiyaku Kabushiki Kaisha, priority 2009, dated 2015)

biological target: T1, human PTH1 receptor (Homo sapiens, UniProt Q03431); test: In vitro cAMP signal activity in HKRK-B7 cells (LLC-PK1 cells overexpressing the human PTH1 receptor); format: cell-based; details: HKRK-B7 cells; compound at 1×10^−3 M; […]; 0.1 µM
T1 sequence (Q03431 27-593): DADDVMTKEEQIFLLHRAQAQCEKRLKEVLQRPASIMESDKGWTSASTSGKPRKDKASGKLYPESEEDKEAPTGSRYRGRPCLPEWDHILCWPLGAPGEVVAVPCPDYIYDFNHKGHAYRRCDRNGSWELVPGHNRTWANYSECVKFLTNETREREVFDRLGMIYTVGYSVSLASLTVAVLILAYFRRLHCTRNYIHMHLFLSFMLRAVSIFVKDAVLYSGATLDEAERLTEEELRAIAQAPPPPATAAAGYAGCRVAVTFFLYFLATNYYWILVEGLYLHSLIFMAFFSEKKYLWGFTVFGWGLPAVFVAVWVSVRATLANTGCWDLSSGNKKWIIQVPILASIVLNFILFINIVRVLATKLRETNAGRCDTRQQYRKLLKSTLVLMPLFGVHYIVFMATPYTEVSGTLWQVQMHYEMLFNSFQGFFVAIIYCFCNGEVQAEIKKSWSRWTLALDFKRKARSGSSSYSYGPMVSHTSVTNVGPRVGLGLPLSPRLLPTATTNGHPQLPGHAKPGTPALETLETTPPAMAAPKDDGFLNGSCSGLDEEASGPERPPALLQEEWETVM

For Cc1cc(N(C)C(=O)OCCN(C)C)ccc1/C=C/S(=O)(=O)N1CCC2(CC1)N=C(c1cccc(OC(F)(F)F)c1)NC2=O [Compound 466, Methyl-(3-methyl-4-{(E)-2-[4-oxo-2-(3-trifluoromethoxy-phenyl)-1,3,8-triaza-spiro[4.5]dec-1-ene-8-sulfonyl]-vinyl}-phenyl)-carbamic acid 2-dimethylamino-ethyl ester], the “cAMP production activity (%)” value was 23%.

same assay, conditions: HKRK-B7 cells; compound at 1×10^−3 M; cAMP produced as percentage of that produced by hPTH(1-34) at 100 nM

First: CCCCC1CCC(C2=NC3(CCN(S(=O)(=O)/C=C/c4c(C)cc(C(=O)N5CCC(OCCO)CC5)cc4C)CC3)C(=O)N2)CC1 (centres unmarked) [Compound 1008, 2-(4-Butyl-cyclohexyl)-8-((E)-2-{4-[4-(2-hydroxy-ethoxy)-piperidine-1-carbonyl]-2,6-dimethyl-phenyl}-ethenesulfonyl)-1,3,8-triaza-spiro[4.5]dec-1-en-4-one]
Second: Cc1cc(CN)cc(C)c1/C=C/S(=O)(=O)N1CCC2(CC1)N=C(C1CCC(CCC(F)(F)F)CC1)NC2=O (centres unmarked) [Compound 1290, 8-[(E)-2-(4-aminomethyl-2,6-dimethyl-phenyl)-ethenesulfonyl]-2-[4-(3,3,3-trifluoro-propyl)-cyclohexyl]-1,3,8-triaza-spiro[4.5]dec-1-en-4-one]
The “cAMP production activity (%)” value of the first is higher: 73% for the first, 6.3% for the second.

Going from Cc1cc(N2C(=O)NC(C)(C)C2=O)cc(C)c1/C=C/S(=O)(=O)N1CCC2(CC1)N=C(C1CCC(C)CC1)NC2=O (centres unmarked) [Compound 507, 3-(3,5-dimethyl-4-{(E)-2-[2-(4-methyl-cyclohexyl)-4-oxo-1,3,8-triaza-spiro[4.5]dec-1-ene-8-sulfonyl]-vinyl}-phenyl)-5,5-dimethyl-imidazolidine-2,4-dione] to COc1c(N(C)C(=O)OC(C)(C)C)cc(C)c(CCS(=O)(=O)N2CCC3(CC2)N=C([C@H]2CC[C@H](C)CC2)NC3=O)c1C [Compound 669, (2-methoxy-3,5-dimethyl-4-{2-[2-(4-methyl-cyclohexyl)-4-oxo-1,3,8-triaza-spiro[4.5]dec-1-ene-8-sulfonyl]-ethyl}-phenyl)-methyl-carbamic acid tert-butyl ester], the “cAMP production activity (%)” value rises from 43% to 58%.

Compared with Cc1cc(C(=O)N2CCC(F)(F)CC2)ccc1CCS(=O)(=O)N1CCC2(CC1)N=C(c1cccc(C(F)(F)F)c1)NC2=O [Compound 365, 8-{2-[4-(4,4-difluoro-piperidine-1-carbonyl)-2-methyl-phenyl]-ethanesulfonyl}-2-(3-trifluoromethyl-phenyl)-1,3,8-triaza-spiro[4.5]dec-1-en-4-one], Cc1cc(C2=NC3(CCN(S(=O)(=O)CCc4c(C)cc(C(=O)N5CCC(C)(O)CC5)cc4C)CC3)C(=O)N2)ccc1C(F)(F)F [Compound 1235, 8-{2-[4-(4-hydroxy-4-methyl-piperidine-1-carbonyl)-2,6-dimethyl-phenyl]-ethanesulfonyl}-2-(3-methyl-4-trifluoromethyl-phenyl)-1,3,8-triaza-spiro[4.5]dec-1-en-4-one] is higher in “cAMP production activity (%)” value: 81% for the first, 98% for the second.

First: [2H]C([2H])([2H])C1([2H])CCC(C2=NC3(CCN(S(=O)(=O)CCc4c(C)cc(N(C)C(N)=O)cc4C)CC3)C(=O)N2)CC1 (centres unmarked) [Compound 1364, 1-(3,5-dimethyl-4-{2-[2-(4-[1,1,1-^2H3]-methyl-[4-^2H1]cyclohexyl)-4-oxo-1,3,8-triaza-spiro[4.5]dec-1-ene-8-sulfonyl]-ethyl}-phenyl)-1-methyl-urea]
Second: Cc1cc(N(C)C(N)=O)cc(C)c1CCS(=O)(=O)N1CCC2(CC1)N=C(C1C3CCCC1CCC3)NC2=O (centres unmarked) [Compound 1053, 1-{4-[2-(2-bicyclo[3.3.1]non-9-yl-4-oxo-1,3,8-triaza-spiro[4.5]dec-1-ene-8-sulfonyl)-ethyl]-3,5-dimethyl-phenyl}-1-methyl-urea]
The “cAMP production activity (%)” value of the first is higher: 84% for the first, 70% for the second.

First: Cc1cc(C(=O)N(C)C)ccc1CCS(=O)(=O)N1CCC2(CC1)N=C(c1ccc(Cl)cc1Cl)NC2=O [Compound 73, 4-{2-[2-(2,4-Dichloro-phenyl)-4-oxo-1,3,8-triaza-spiro[4.5]dec-1-ene-8-sulfonyl]-ethyl}-3,N,N-trimethyl-benzamide]
Second: Cc1cc(C(=O)N(C)C)ccc1CCS(=O)(=O)N1CCC2(CC1)N=C(CCc1ccccc1)NC2=O [Compound 101, 3,N,N-trimethyl-4-[2-(4-oxo-2-phenethyl-1,3,8-triaza-spiro[4.5]dec-1-ene-8-sulfonyl)-ethyl]-benzamide]
The “cAMP production activity (%)” value of the first is higher: 66% for the first, 49% for the second.

First: Cc1cc(C(=O)N2CC(F)(F)C(F)(F)C2)ccc1/C=C/S(=O)(=O)N1CCC2(CC1)N=C(C1CCCCC1)NC2=O [Compound 203, 2-cyclohexyl-8-{(E)-2-[2-methyl-4-(3,3,4,4-tetrafluoro-pyrrolidine-1-carbonyl)-phenyl]-ethenesulfonyl}-1,3,8-triaza-spiro[4.5]dec-1-en-4-one]
Second: CC(=O)NCCNC(=O)CNc1ccc(/C=C/S(=O)(=O)N2CCC3(CC2)N=C(C2CCCCC2)NC3=O)c(C(F)(F)F)c1 [Compound 498, N-(2-acetylamino-ethyl)-2-{4-[(E)-2-(2-cyclohexyl-4-oxo-1,3,8-triaza-spiro[4.5]dec-1-ene-8-sulfonyl)-vinyl]-3-trifluoromethyl-phenylamino}-acetamide]
The “cAMP production activity (%)” value of the first is lower: 25% for the first, 53% for the second.

CC(=O)N(CCOCCF)c1ccc(CCS(=O)(=O)N2CCC3(CC2)N=C(C2CCC(CCC(F)(F)F)CC2)NC3=O)c(C)c1 (centres unmarked) [Compound 757, N-[2-(2-fluoro-ethoxy)-ethyl]-N-[3-methyl-4-(2-{4-oxo-2-[4-(3,3,3-trifluoro-propyl)-cyclohexyl]-1,3,8-triaza-spiro[4.5]dec-1-ene-8-sulfonyl}-ethyl)-phenyl]-acetamide] and COCCN(C(C)=O)c1cc(C)c(CCS(=O)(=O)N2CCC3(CC2)N=C(C2CCC(CCC(F)(F)F)CC2)NC3=O)c(C)c1 (centres unmarked) [Compound 756, N-[3,5-dimethyl-4-(2-{4-oxo-2-[4-(3,3,3-trifluoro-propyl)-cyclohexyl]-1,3,8-triaza-spiro[4.5]dec-1-ene-8-sulfonyl}-ethyl)-phenyl]-N-(2-methoxy-ethyl)-acetamide] are the same in “cAMP production activity (%)” value: 79% for the first, 79% for the second.

First: O=C(C1CCc2ccccc2C1)N1CCCC(C2=NC3(CCN(S(=O)(=O)CCc4cccc5ccccc45)CC3)C(=O)N2)C1 (centres unmarked) [Compound 430, 8-(2-naphthalen-1-yl-ethanesulfonyl)-2-[1-(1,2,3,4-tetrahydro-naphthalene-2-carbonyl)-piperidin-3-yl]-1,3,8-triaza-spiro[4.5]dec-1-en-4-one]
Second: CCC1CCC(C2=NC3(CCN(S(=O)(=O)CCc4cc(Cl)c(NC(C)=O)cc4C)CC3)C(=O)N2)CC1 (centres unmarked) [Compound 953, N-(2-Chloro-4-{2-[2-(4-ethyl-cyclohexyl)-4-oxo-1,3,8-triaza-spiro[4.5]dec-1-ene-8-sulfonyl]-ethyl}-5-methyl-phenyl)-acetamide]
The “cAMP production activity (%)” value of the first is lower: 23% for the first, 77% for the second.

Going from O=C1NC(C2CCC(C(F)(F)F)CC2)=NC12CCN(S(=O)(=O)c1cccc(Cl)c1)CC2 (centres unmarked) [Compound 17, 8-(3-chloro-benzenesulfonyl)-2-(4-trifluoromethyl-cyclohexyl)-1,3,8-triaza-spiro[4.5]dec-1-en-4-one] to CCc1cccc(NS(=O)(=O)N2CCC3(CC2)N=C(C2CCCCC2)NC3=O)c1 [Compound 177, 2-Cyclohexyl-4-oxo-1,3,8-triaza-spiro[4.5]dec-1-ene-8-sulfonic (3-ethylphenyl)amide], the “cAMP production activity (%)” value falls from 39% to 28%.

First: [2H]C([2H])([2H])C([2H])([2H])C([2H])([2H])C([2H])([2H])Oc1ccc(C2=NC3(CCN(S(=O)(=O)/C=C/c4c(C)cc(C(=O)N5CCC(C)(O)CC5)cc4C)CC3)C(=O)N2)cc1C(F)(F)F [Compound 1220, 2-(4-[1,1,2,2,3,3,4,4,4-^2H9]butoxy-3-trifluoromethyl-phenyl)-8-{(E)-2-[4-(4-hydroxy-4-methyl-piperidine-1-carbonyl)-2,6-dimethyl-phenyl]-ethenesulfonyl}-1,3,8-triaza-spiro[4.5]dec-1-en-4-one]
Second: Cc1cc(C(=O)N(C)CCCO)cc(C)c1/C=C/S(=O)(=O)N1CCC2(CC1)N=C(c1cccc(C(F)(F)F)c1)NC2=O [Compound 389, N-(3-hydroxy-propyl)-3,5,N-trimethyl-4-{(E)-2-[4-oxo-2-(3-trifluoromethyl-phenyl)-1,3,8-triaza-spiro[4.5]dec-1-ene-8-sulfonyl]-vinyl}-benzamide]
The “cAMP production activity (%)” value of the first is higher: 80% for the first, 75% for the second.

Compared with O=C1NC(C2CCCCC2)=NC12CCN(S(=O)(=O)/C=C/c1cccc3c1ccn3C[C@H](O)CO)CC2 [Compound 191, 2-cyclohexyl-8-{(E)-2-[1-((S)-2,3-dihydroxy-propyl)-1H-indol-4-yl]-ethenesulfonyl}-1,3,8-triaza-spiro[4.5]dec-1-en-4-one], CC(=O)N(CCO)c1ccc(CCS(=O)(=O)N2CCC3(CC2)N=C(c2ccc(F)c(C(F)(F)F)c2)NC3=O)c(C)c1 [Compound 721, N-(4-{2-[2-(4-Fluoro-3-trifluoromethyl-phenyl)-4-oxo-1,3,8-triaza-spiro[4.5]dec-1-ene-8-sulfonyl]-ethyl}-3-methyl-phenyl)-N-(2-hydroxy-ethyl)-acetamide] is higher in “cAMP production activity (%)” value: 57% for the first, 92% for the second.
